Where two headings read alike, the source gives them in different places.
Tested on: GRMD plasma proteins
Format: in vivo, dog
[1] = Post-Treatment to GRMD baseline, Decreased in GRMD

O=c1ccc(-c2cnc(OCC(F)(F)F)nc2)nn1Cc1cncc(F)c1 [EDG-5506]
Change from GRMD Baseline (fraction) (Human Chorionic Gonadotropin (CGA CGB), Post-Treatment to GRMD baseline): 2.5964 fraction
Change from GRMD Baseline (fraction) (Insulin (INS), EDG-5506 treatment to GRMD baseline): 0.2426 fraction
Change from GRMD Baseline (fraction) (Insulin (INS), Post-Treatment to GRMD baseline): 0.0736 fraction
Change from GRMD Baseline (fraction) (Interferon lambda-2 (IFNL2), EDG-5506 treatment to GRMD baseline): 0.1683 fraction
Change from GRMD Baseline (fraction) (Interferon lambda-2 (IFNL2), Post-Treatment to GRMD baseline): 0.4121 fraction
Change from GRMD Baseline (fraction) (Interleukin-12 (IL12A IL12B), EDG-5506 treatment to GRMD baseline): 0.1563 fraction
Change from GRMD Baseline (fraction) (Interleukin-12 (IL12A IL12B), Post-Treatment to GRMD baseline): 0.0477 fraction
Change from GRMD Baseline (fraction) (Leucine-rich repeat transmembrane protein FLRT2 (FLRT2), EDG-5506 treatment to GRMD baseline): 0.1078 fraction
Change from GRMD Baseline (fraction) (Leucine-rich repeat transmembrane protein FLRT2 (FLRT2), Post-Treatment to GRMD baseline): -0.1244 fraction
Change from GRMD Baseline (fraction) (Megakaryocyte-associated tyrosine-protein kinase (MATK), EDG-5506 treatment to GRMD baseline): 0.083 fraction
Change from GRMD Baseline (fraction) (Megakaryocyte-associated tyrosine-protein kinase (MATK), Post-Treatment to GRMD baseline): 0.0043 fraction
Change from GRMD Baseline (fraction) (Mitogen-activated protein kinase 9 (MAPK9), EDG-5506 treatment to GRMD baseline): 0.1873 fraction
Change from GRMD Baseline (fraction) (Mitogen-activated protein kinase 9 (MAPK9), Post-Treatment to GRMD baseline): -0.0197 fraction
Change from GRMD Baseline (fraction) (Myc proto-oncogene protein (MYC), EDG-5506 treatment to GRMD baseline): 0.0043 fraction
Change from GRMD Baseline (fraction) (Myc proto-oncogene protein (MYC), Post-Treatment to GRMD baseline): 0.0245 fraction
Change from GRMD Baseline (fraction) (Nascent polypeptide-associated complex subunit alpha (NACA), EDG-5506 treatment to GRMD baseline): -0.0939 fraction
Change from GRMD Baseline (fraction) (Nascent polypeptide-associated complex subunit alpha (NACA), Post-Treatment to GRMD baseline): -0.019 fraction
Change from GRMD Baseline (fraction) (Neurexin-1-beta (NRXN1), EDG-5506 treatment to GRMD baseline): 0.163 fraction
Change from GRMD Baseline (fraction) (Neurexin-1-beta (NRXN1), Post-Treatment to GRMD baseline): 0.0798 fraction
Change from GRMD Baseline (fraction) (Neuropilin-1 (NRP1), EDG-5506 treatment to GRMD baseline): -0.1066 fraction
Change from GRMD Baseline (fraction) (Neuropilin-1 (NRP1), Post-Treatment to GRMD baseline): -0.2144 fraction
Change from GRMD Baseline (fraction) (Neutrophil elastase (ELANE), EDG-5506 treatment to GRMD baseline): 0.113 fraction
Change from GRMD Baseline (fraction) (Neutrophil elastase (ELANE), Post-Treatment to GRMD baseline): 0.0205 fraction
Change from GRMD Baseline (fraction) (Neutrophil-activating peptide 2 (PPBP), EDG-5506 treatment to GRMD baseline): -0.0999 fraction
Change from GRMD Baseline (fraction) (Neutrophil-activating peptide 2 (PPBP), Post-Treatment to GRMD baseline): 0.0464 fraction
Change from GRMD Baseline (fraction) (Osteocalcin (BGLAP), EDG-5506 treatment to GRMD baseline): 0.2208 fraction
Change from GRMD Baseline (fraction) (Osteocalcin (BGLAP), Post-Treatment to GRMD baseline): -0.0043 fraction
Change from GRMD Baseline (fraction) (PILR alpha-associated neural protein (PIANP), EDG-5506 treatment to GRMD baseline): 0.0458 fraction
Change from GRMD Baseline (fraction) (PILR alpha-associated neural protein (PIANP), Post-Treatment to GRMD baseline): -0.0155 fraction
Change from GRMD Baseline (fraction) (Periostin (POSTN), EDG-5506 treatment to GRMD baseline): 0.1077 fraction
Change from GRMD Baseline (fraction) (Periostin (POSTN), Post-Treatment to GRMD baseline): -0.1102 fraction
Change from GRMD Baseline (fraction) (Pleiotrophin (PTN), EDG-5506 treatment to GRMD baseline): 0.0122 fraction
Change from GRMD Baseline (fraction) (Pleiotrophin (PTN), Post-Treatment to GRMD baseline): -0.0998 fraction
3-hydroxyisobutyrate dehydrogenase, mitochondrial (HIBADH): Change from GRMD Baseline (fraction) [1]: 0.0399 fraction
14-3-3 protein beta/alpha (YWHAB): Change from GRMD Baseline (fraction) [1]: -0.1281 fraction
14-3-3 protein sigma (SFN): Change from GRMD Baseline (fraction) [1]: -0.1134 fraction
72 kDa type IV collagenase (MMP2): Change from GRMD Baseline (fraction) [1]: -0.3542 fraction
Adrenomedullin (ADM): Change from GRMD Baseline (fraction) [1]: -0.0931 fraction
Aggrecan core protein (ACAN): Change from GRMD Baseline (fraction) [1]: -0.1233 fraction
Alpha-synuclein (SNCA): Change from GRMD Baseline (fraction) [1]: -0.0439 fraction
Apolipoprotein B (APOB): Change from GRMD Baseline (fraction) [1]: -0.0228 fraction
Appetite-regulating hormone (GHRL): Change from GRMD Baseline (fraction) [1]: 0.0233 fraction
Atrial natriuretic factor (NPPA): Change from GRMD Baseline (fraction) [1]: 0.0027 fraction
BDNF/NT-3 growth factors receptor (NTRK2): Change from GRMD Baseline (fraction) [1]: -0.0065 fraction
BH3-interacting domain death agonist (BID): Change from GRMD Baseline (fraction) [1]: 0.0184 fraction
Bcl-2-related protein A1 (BCL2A1): Change from GRMD Baseline (fraction) [1]: 0.0661 fraction
Bone morphogenetic protein 6 (BMP6): Change from GRMD Baseline (fraction) [1]: -0.0925 fraction
Bone morphogenetic protein 10 (BMP10): Change from GRMD Baseline (fraction) [1]: -0.0513 fraction
C-X-C motif chemokine 10 (CXCL10): Change from GRMD Baseline (fraction) [1]: 0.0358 fraction
C-type mannose receptor 2 (MRC2): Change from GRMD Baseline (fraction) [1]: -0.1031 fraction
CD166 antigen (ALCAM): Change from GRMD Baseline (fraction) [1]: 0.0066 fraction
Cadherin-5 (CDH5): Change from GRMD Baseline (fraction) [1]: -0.1425 fraction
Carboxypeptidase E (CPE): Change from GRMD Baseline (fraction) [1]: 0.0109 fraction
Cell adhesion molecule 1 (CADM1): Change from GRMD Baseline (fraction) [1]: -0.1579 fraction
Chromogranin-A (CHGA): Change from GRMD Baseline (fraction) [1]: 0.0248 fraction
Ciliary neurotrophic factor receptor subunit alpha (CNTFR): Change from GRMD Baseline (fraction) [1]: -0.0624 fraction
Ck-beta-8-1 (CCL23): Change from GRMD Baseline (fraction) [1]: 0.0454 fraction
Coiled-coil domain-containing protein 80 (CCDC80): Change from GRMD Baseline (fraction) [1]: 0.0372 fraction
Collagen alpha-1(VIII) chain (COL8A1): Change from GRMD Baseline (fraction) [1]: 0.1221 fraction
Collagenase 3 (MMP13): Change from GRMD Baseline (fraction) [1]: -0.3148 fraction
Collectin-12 (COLEC12): Change from GRMD Baseline (fraction) [1]: -0.0046 fraction
Complement component C1q receptor (CD93): Change from GRMD Baseline (fraction) [1]: -0.1418 fraction
Complement decay-accelerating factor (CD55): Change from GRMD Baseline (fraction) [1]: 0.0605 fraction
Contactin-1 (CNTN1): Change from GRMD Baseline (fraction) [1]: -0.0113 fraction
Corticotropin (POMC): Change from GRMD Baseline (fraction) [1]: 0.0912 fraction
Cytotoxic and regulatory T-cell molecule (CRTAM): Change from GRMD Baseline (fraction) [1]: 0.2824 fraction
Dickkopf-related protein 1 (DKK1): Change from GRMD Baseline (fraction) [1]: -0.0925 fraction
Dickkopf-related protein 4 (DKK4): Change from GRMD Baseline (fraction) [1]: -0.1272 fraction
E3 ubiquitin-protein ligase ZNRF3 (ZNRF3): Change from GRMD Baseline (fraction) [1]: 0.0469 fraction
Ephrin type-A receptor 5 (EPHA5): Change from GRMD Baseline (fraction) [1]: -0.1823 fraction
Ephrin-A2 (EFNA2): Change from GRMD Baseline (fraction) [1]: -0.0773 fraction
Ephrin-A5 (EFNA5): Change from GRMD Baseline (fraction) [1]: -0.1613 fraction
Epidermal growth factor receptor (EGFR): Change from GRMD Baseline (fraction) [1]: -0.0135 fraction
Estradiol 17-beta-dehydrogenase 1 (HSD17B1): Change from GRMD Baseline (fraction) [1]: 0.0729 fraction
Fatty acid-binding protein, epidermal (FABP5): Change from GRMD Baseline (fraction) [1]: 0.3761 fraction
Fc receptor-like protein 3 (FCRL3): Change from GRMD Baseline (fraction) [1]: -0.0287 fraction
GDNF family receptor alpha-2 (GFRA2): Change from GRMD Baseline (fraction) [1]: -0.0362 fraction
Galectin-8 (LGALS8): Change from GRMD Baseline (fraction) [1]: 0.1492 fraction
Galectin-9 (LGALS9): Change from GRMD Baseline (fraction) [1]: -0.0107 fraction
Gamma-enolase (ENO2): Change from GRMD Baseline (fraction) [1]: -0.0983 fraction
Gastrin-releasing peptide (GRP): Change from GRMD Baseline (fraction) [1]: 0.0411 fraction
Glutamate carboxypeptidase 2 (FOLH1): Change from GRMD Baseline (fraction) [1]: 0.145 fraction
Glypican-2 (GPC2): Change from GRMD Baseline (fraction) [1]: 0.075 fraction
Gremlin-1 (GREM1): Change from GRMD Baseline (fraction) [1]: 0.1318 fraction
Growth/differentiation factor 8 (MSTN): Change from GRMD Baseline (fraction) [1]: 0.065 fraction
Growth/differentiation factor 11/8 (GDF11 MSTN): Change from GRMD Baseline (fraction) [1]: -0.0539 fraction
Hemoglobin (HBA1 HBB): Change from GRMD Baseline (fraction) [1]: -0.0209 fraction
Heparin cofactor 2 (SERPIND1): Change from GRMD Baseline (fraction) [1]: 0.014 fraction
Hepatitis A virus cellular receptor 2 (HAVCR2): Change from GRMD Baseline (fraction) [1]: 0.0719 fraction
High affinity immunoglobulin gamma Fc receptor I (FCGR1A): Change from GRMD Baseline (fraction) [1]: 0.0477 fraction
Histone-lysine N-methyltransferase EHMT2 (EHMT2): Change from GRMD Baseline (fraction) [1]: -0.0469 fraction
Hyaluronan and proteoglycan link protein 1 (HAPLN1): Change from GRMD Baseline (fraction) [1]: -0.1275 fraction
Insulin-like growth factor 1 receptor (IGF1R): Change from GRMD Baseline (fraction) [1]: -0.1027 fraction
Integrin alpha-V: beta-5 complex (ITGAV ITGB5): Change from GRMD Baseline (fraction) [1]: 0.0267 fraction
Interleukin-4 receptor subunit alpha (IL4R): Change from GRMD Baseline (fraction) [1]: 0.0286 fraction
Interleukin-18-binding protein (IL18BP): Change from GRMD Baseline (fraction) [1]: -0.0841 fraction
Interstitial collagenase (MMP1): Change from GRMD Baseline (fraction) [1]: 0.1983 fraction
Leucine-rich repeat transmembrane neuronal protein 3 (LRRTM3): Change from GRMD Baseline (fraction) [1]: 0.0593 fraction
Limbic system-associated membrane protein (LSAMP): Change from GRMD Baseline (fraction) [1]: -0.0633 fraction
Lymphocyte activation gene 3 protein (LAG3): Change from GRMD Baseline (fraction) [1]: 0.8111 fraction
Lysosome membrane protein 2 (SCARB2): Change from GRMD Baseline (fraction) [1]: 0.1572 fraction
MHC class I polypeptide-related sequence B (MICB): Change from GRMD Baseline (fraction) [1]: 0.6204 fraction
Matrilin-2 (MATN2): Change from GRMD Baseline (fraction) [1]: -0.1616 fraction
Melanoma-derived growth regulatory protein (MIA): Change from GRMD Baseline (fraction) [1]: -0.1058 fraction
Moesin (MSN): Change from GRMD Baseline (fraction) [1]: 0.1568 fraction
Muellerian-inhibiting factor (AMH): Change from GRMD Baseline (fraction) [1]: 0.0468 fraction
NKG2D ligand 1 (ULBP1): Change from GRMD Baseline (fraction) [1]: -0.0033 fraction
NT-3 growth factor receptor (NTRK3): Change from GRMD Baseline (fraction) [1]: -0.1478 fraction
Netrin receptor UNC5C (UNC5C): Change from GRMD Baseline (fraction) [1]: -0.0587 fraction
Neurogenic locus notch homolog protein 2 (NOTCH2): Change from GRMD Baseline (fraction) [1]: 0.0095 fraction
Neurogenic locus notch homolog protein 3 (NOTCH3): Change from GRMD Baseline (fraction) [1]: -0.0751 fraction
Nuclear receptor subfamily 1 group D member 1 (NR1D1): Change from GRMD Baseline (fraction) [1]: 0.0266 fraction
Phospholipase A2 (PLA2G1B): Change from GRMD Baseline (fraction) [1]: -0.0833 fraction
Placenta growth factor (PGF): Change from GRMD Baseline (fraction) [1]: -0.1111 fraction
Plasminogen (PLG): Change from GRMD Baseline (fraction) [1]: 0.0803 fraction
PolyUbiquitin K63-linked (UBC): Change from GRMD Baseline (fraction) [1]: 0.2532 fraction
Proteasome activator complex subunit 3 (PSME3): Change from GRMD Baseline (fraction) [1]: 0.0489 fraction
Protein S100-A4 (S100A4): Change from GRMD Baseline (fraction) [1]: -0.1235 fraction
Protein amnionless (AMN): Change from GRMD Baseline (fraction) [1]: 0.002 fraction

Source: article PMC10178848, “Modulating fast skeletal muscle contraction protects skeletal muscle in animal models of Duchenne muscular dystrophy” (The Journal of Clinical Investigation, 2023)
